Data on 17 compounds can be found in US20240425517A1, “NOVEL COMPOUND FOR DEGRADATION OF TARGET PROTEIN OR POLYPEPTIDE BY POLYUBIQUITINATION” (PRAZER THERAPEUTICS INC., priority 2021, published 2024).

Counter-ions that a name gives are not always drawn. Bounds are passed on as bounds.

The target of the first assay is T1, Aurora A proteins (Homo sapiens, UniProt O14965).
T1 construct: endogenous in cells; host or cells: MM.1S
T1 sequence (O14965 1-403): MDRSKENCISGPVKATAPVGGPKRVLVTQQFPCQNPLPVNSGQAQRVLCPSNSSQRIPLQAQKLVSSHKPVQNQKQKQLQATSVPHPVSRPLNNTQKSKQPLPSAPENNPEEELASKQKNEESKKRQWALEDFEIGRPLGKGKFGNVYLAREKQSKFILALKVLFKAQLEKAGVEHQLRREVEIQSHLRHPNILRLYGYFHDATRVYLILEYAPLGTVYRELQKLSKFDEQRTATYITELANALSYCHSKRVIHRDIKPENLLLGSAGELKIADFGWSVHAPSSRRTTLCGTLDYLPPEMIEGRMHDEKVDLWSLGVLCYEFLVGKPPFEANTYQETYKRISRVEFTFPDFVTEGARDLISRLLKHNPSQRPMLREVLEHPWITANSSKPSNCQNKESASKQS
The experiment in a line: Degradation of Aurora A protein in MM.1S cell lines (Western blot densitometry). The settings on record: MM1.S, 24 h, read-out: Aurora A degrading capacity (%). The assay is classed as cell-based. The protocol: Specifically, the MM.1S cells were cultured in RPMI-1640 medium containing 10% fetal bovine serum (FBS), 1% penicillin, and streptomycin (100 U/mL), transferred to a 6-well plate, and after 24 hours, the Aurora A degraders were diluted in the RPMI culture medium and cells were treated with 5 μM concentration thereof. After treatment, the cells were incubated in a CO2 incubator for 24 hours. […] After cell culture was completed according to the experimental conditions, the cells were collected and centrifuged at 1,800 rpm for 3 minutes. The cells in the precipitate were lysed with RIPA (25 mM Tris-HCl pH 7.6, 150 mM NaCl, 1% NP-40, 1% sodium deoxycholate, 0.1% SDS, 1× Protease Inhibitor Cocktail), 5× sample buffer was added, and then heated at 100° C. for 15 minutes. The prepared sample was electrophoresed with sodium dodecyl sulfate poly acrylamide gel electrophoresis (SDS-PAGE), and then the proteins in the gel were transferred to a PVDF membrane using Trans-Blot Turbo. The membrane was treated with a 5% bovine serum albumin (BSA) solution and blocked at room temperature for 2 hours, and then Aurora A and R-actin antibodies were diluted in the 5% BSA solution to react with the membrane at 4° C. overnight. After washed with PBST (0.5% Tween20) 5 times, horse radish peroxidase (HRP)-conjugated secondary antibodies were diluted in PBST to react at room temperature for 2 hours, and then washed again with a PBST solution 5 times. After enzyme-substrate reaction was carried out using a HRP substrate, a signal was measured with chemi-doc equipment, and the densitometry of a band corresponding to the Aurora A protein detected in the Preparation Example Compounds was quantitatively analyzed. The case when the degrading capacity of each Aurora A degrader was reduced by less than 40% is indicated as +, the case when the degrading capacity was reduced by 40% to 70% (exclusive of 70) is indicated as ++, the case when the degrading capacity was reduced by 70% or more is indicated as +++ in Tables 20 to 23 below.
(A western blot detects proteins with antibodies after separation by electrophoresis.)
Turning to `COc1cc(Nc2ncc3c(n2)-c2ccc(Cl)cc2C(c2c(F)cccc2OC)=NC3)ccc1C(=O)Nc1ccc(C#CCN)cc1` [1-1″, N-(4-(3-aminoprop-1-yn-1-yl)phenyl)-4-((9-chloro-7-(2-fluoro-6-methoxyphenyl)-5H-benzo[c]pyrimido[4,5-e]azepin-2-yl)amino)-2-methoxybenzamide trifluoroacetic acid], the Aurora A degradation (%) at 5 µM is > 70%.
On the same count and under the same terms, for `COC(=O)c1ccc(C#CCNC(=O)c2ccc(Nc3ncc4c(n3)-c3ccc(Cl)cc3C(c3c(F)cccc3OC)=NC4)cc2OC)cc1C#CCN` [5-116″, methyl 2-(3-aminoprop-1-yn-1-yl)-4-(3-(4-((9-chloro-7-(2-fluoro-6-methoxyphenyl)-5H-benzo[c]pyrimido[4,5-e]azepin-2-yl)amino)-2-methoxybenzamido)prop-1-yn-1-yl)benzoate trifluoroacetic acid] the value was > 70%; for `COc1cc(Nc2ncc3c(n2)-c2ccc(Cl)cc2C(c2c(F)cccc2OC)=NC3)ccc1C(=O)NCCCCCC(=O)Nc1ccc(C#CCN)cc1` [4-165″, N-(6-((4-(3-aminoprop-1-yn-1-yl)phenyl)amino)-6-oxohexyl)-4-((9-chloro-7-(2-fluoro-6-methoxyphenyl)-5H-benzo[c]pyrimido[4,5-e]azepin-2-yl)amino)-2-methoxybenzamide trifluoroacetic acid], > 70%; for `COc1cc(Nc2ncc3c(n2)-c2ccc(Cl)cc2C(c2c(F)cccc2OC)=NC3)ccc1C(=O)NCCCCCC(=O)Nc1cccc(C#CCN)c1` [5-104″, N-(6-((3-(3-aminoprop-1-yn-1-yl)phenyl)amino)-6-oxohexyl)-4-((9-chloro-7-(2-fluoro-6-methoxyphenyl)-5H-benzo[c]pyrimido[4,5-e]azepin-2-yl)amino)-2-methoxybenzamide trifluoroacetic acid], > 70%.
On the same count and under the same terms, for `COC(=O)c1ccc(N2CCN(C(=O)CCNC(=O)c3ccc(Nc4ncc5c(n4)-c4ccc(Cl)cc4C(c4c(F)cccc4OC)=NC5)cc3OC)CC2)cc1C#CCN` [5-32″, methyl 2-(3-aminoprop-1-yn-1-yl)-4-(4-(3-(4-((9-chloro-7-(2-fluoro-6-methoxyphenyl)-5H-benzo[c]pyrimido[4,5-e]azepin-2-yl)amino)-2-methoxybenzamido)propanoyl)piperazin-1-yl)benzoate trifluoroacetic acid] the value was 40 to 70%; for `COc1cc(Nc2ncc3c(n2)-c2ccc(Cl)cc2C(c2c(F)cccc2OC)=NC3)ccc1C(=O)NCCCNC(=O)c1ccc(C#CCN)o1` [4-166″, 5-(3-aminoprop-1-yn-1-yl)-N-(3-(4-((9-chloro-7-(2-fluoro-6-methoxyphenyl)-5H-benzo[c]pyrimido[4,5-e]azepin-2-yl)amino)-2-methoxybenzamido)propyl)furan-2-carboxamide trifluoroacetic acid], < 40%.
Take `COc1cc(Nc2ncc3c(n2)-c2ccc(Cl)cc2C(c2c(F)cccc2OC)=NC3)ccc1C(=O)Nc1cccc(C#CCN)c1` [1-3″, N-(3-(3-aminoprop-1-yn-1-yl)phenyl)-4-((9-chloro-7-(2-fluoro-6-methoxyphenyl)-5H-benzo[c]pyrimido[4,5-e]azepin-2-yl)amino)-2-methoxybenzamide trifluoroacetic acid]: the Aurora A degradation (%) at 5 µM was > 70%.
The same measure, in the same setting: for `COc1cc(Nc2ncc3c(n2)-c2ccc(Cl)cc2C(c2c(F)cccc2OC)=NC3)ccc1C(=O)NCCCC(=O)Nc1ccc(C#CCN)c(CO)c1` [5-8″, N-(4-((4-(3-aminoprop-1-yn-1-yl)-3-(hydroxymethyl)phenyl)amino)-4-oxobutyl)-4-((9-chloro-7-(2-fluoro-6-methoxyphenyl)-5H-benzo[c]pyrimido[4,5-e]azepin-2-yl)amino)-2-methoxybenzamide trifluoroacetic acid] the value was < 40%.
With `COc1cc(Nc2ncc3c(n2)-c2ccc(Cl)cc2C(c2c(F)cccc2OC)=NC3)ccc1C(=O)Nc1ccc(C#CC(N)CO)cc1` (centres unmarked) [3-49″, N-(4-(3-amino-4-hydroxybut-1-yn-1-yl)phenyl)-4-((9-chloro-7-(2-fluoro-6-methoxyphenyl)-5H-benzo[c]pyrimido[4,5-e]azepin-2-yl)amino)-2-methoxybenzamide trifluoroacetic acid], the Aurora A degradation (%) at 5 µM was > 70%.
The same measure, in the same setting: for `COC(=O)c1ccc(N(C)C(=O)CCCNC(=O)c2ccc(Nc3ncc4c(n3)-c3ccc(Cl)cc3C(c3c(F)cccc3OC)=NC4)cc2OC)cc1C#CCN` [5-150″, methyl 2-(3-aminoprop-1-yn-1-yl)-4-(4-(4-((9-chloro-7-(2-fluoro-6-methoxyphenyl)-5H-benzo[c]pyrimido[4,5-e]azepin-2-yl)amino)-2-methoxybenzamido)-N-methylbutanamido)benzoate trifluoroacetic acid] the value was < 40%.
The same measure, in the same setting: for `COC(=O)c1ccc(N2CCN(CC3CCN(C(=O)c4ccc(Nc5ncc6c(n5)-c5ccc(Cl)cc5C(c5c(F)cccc5OC)=NC6)cc4OC)CC3)CC2)cc1C#CCN` [5-29″, methyl 2-(3-aminoprop-1-yn-1-yl)-4-(4-((1-(4-((9-chloro-7-(2-fluoro-6-methoxyphenyl)-5H-benzo[c]pyrimido[4,5-e]azepin-2-yl)amino)-2-methoxybenzoyl)piperidin-4-yl)methyl)piperazin-1-yl)benzoate trifluoroacetic acid] the value was > 70%.
The same measure, in the same setting: the figure for `COC(=O)c1ccc(NC(=O)CCCNC(=O)c2ccc(Nc3ncc4c(n3)-c3ccc(Cl)cc3C(c3c(F)cccc3OC)=NC4)cc2OC)cc1C#CCN` [4-228″, methyl 2-(3-aminoprop-1-yn-1-yl)-4-(4-(4-((9-chloro-7-(2-fluoro-6-methoxyphenyl)-5H-benzo[c]pyrimido[4,5-e]azepin-2-yl)amino)-2-methoxybenzamido)butanamido)benzoate trifluoroacetic acid] is 40 to 70%; for `COC(=O)c1ccc(C#CCNC(=O)C2CCN(C(=O)c3ccc(Nc4ncc5c(n4)-c4ccc(Cl)cc4C(c4c(F)cccc4OC)=NC5)cc3OC)CC2)cc1C#CCN` [5-28″, methyl 2-(3-aminoprop-1-yn-1-yl)-4-(3-(1-(4-((9-chloro-7-(2-fluoro-6-methoxyphenyl)-5H-benzo[c]pyrimido[4,5-e]azepin-2-yl)amino)-2-methoxybenzoyl)piperidine-4-carboxamido)prop-1-yn-1-yl)benzoate trifluoroacetic acid] it is > 70%; for `COC(=O)c1ccc(NC(=O)c2ccc(Nc3ncc4c(n3)-c3ccc(Cl)cc3C(c3c(F)cccc3OC)=NC4)cc2OC)cc1C#CCN` [3-25″, methyl 2-(3-aminoprop-1-yn-1-yl)-4-(4-((9-chloro-7-(2-fluoro-6-methoxyphenyl)-5H-benzo[c]pyrimido[4,5-e]azepin-2-yl)amino)-2-methoxybenzamido)benzoate trifluoroacetic acid] it is < 40%.
As for `COc1cc(Nc2ncc3c(n2)-c2ccc(Cl)cc2C(c2c(F)cccc2OC)=NC3)ccc1C(=O)NCC#Cc1ccc(C#CCN)o1` [4-1″, N-(3-(5-(3-aminoprop-1-yn-1-yl)furan-2-yl)prop-2-yn-1-yl)-4-((9-chloro-7-(2-fluoro-6-methoxyphenyl)-5H-benzo[c]pyrimido[4,5-e]azepin-2-yl)amino)-2-methoxybenzamide trifluoroacetic acid], the Aurora A degradation (%) at 5 µM was > 70%.

Still in this assay, the particulars now being: MM1.S; MM.1S cells, 5 μM, 24 hours, Western blot; read-out: Aurora A degrading capacity (%).
With `COC(=O)c1ccc(NC(=O)C2CCN(C(=O)c3ccc(Nc4ncc5c(n4)-c4ccc(Cl)cc4C(c4c(F)cccc4OC)=NC5)cc3OC)CC2)cc1C#CCN` [5-23″, methyl 2-(3-aminoprop-1-yn-1-yl)-4-(1-(4-((9-chloro-7-(2-fluoro-6-methoxyphenyl)-5H-benzo[c]pyrimido[4,5-e]azepin-2-yl)amino)-2-methoxybenzoyl)piperidine-4-carboxamido)benzoate hydrochloride], the Aurora A degradation (%) at 5 µM is < 40%.
The same measure, in the same setting: the figure for `COC(=O)c1ccc(C(=O)NCCCNC(=O)c2ccc(Nc3ncc4c(n3)-c3ccc(Cl)cc3C(c3c(F)cccc3OC)=NC4)cc2OC)cc1C#CCN` [5-18″, methyl 2-(3-aminoprop-1-yn-1-yl)-4-((3-(4-((9-chloro-7-(2-fluoro-6-methoxyphenyl)-5H-benzo[c]pyrimido[4,5-e]azepin-2-yl)amino)-2-methoxybenzamido)propyl)carbamoyl)benzoate hydrochloride] is > 70%.
